Here are results for one substance from patent publication US11608338B2, “Imidazolonylquinolines and the use thereof as ATM kinase inhibitors” (priority 2015, dated 2023).

One experiment addresses mTOR (human) (Homo sapiens (Human), UniProt P42345). Nature of the experiment: mTOR (human) radiometric kinase assay. Type of experiment: biochemical. The settings on record: ATM versus mTOR. How it is done:
Furthermore, the effect, in particular inhibition, of other kinases and thus the selectivity of the compounds according to the invention can be determined with the aid of the following assay:
mTOR (human) was incubated with 50 mM HEPES pH 7.5, 1 mM EGTA, 0.01% Tween 20, 2 mg/ml of the substrate, 3 mM MnCl2 and [γ-^33P-ATP] (specific activity approximately 500 cpm/pmol, concentration as necessary). The reaction was initiated by addition of MgATP solution. After incubation at room temperature for 40 minutes, the reaction was stopped by addition of 3% phosphoric acid. 10 μl of the reaction solution were then transferred dropwise onto a P30 filtermat and washed three times for 5 min in 75 mM phosphoric acid and once in methanol, dried and evaluated by means of liquid scintillation counting.

In experiment [1] the test system is phosphorylation of CHK2 (Thr68) in HCT116 cells. Nature of the experiment: Cellular pCHK2 assay, bleomycin-induced phosphorylation of CHK2 (phospho-Thr68), immunofluorescence high content. Type of experiment: cell-based, human. The settings on record: 10 μM bleomycin, 4 h. The text has this:
For the identification of substances which inhibit the phosphorylation of the protein kinase CHK2 at the amino acid threonine 68, an immunofluorescence-based “high content” analysis assay was used in HCT116 cells.
In vitro cell-based immunofluorescence assay for the identification of inhibitors of bleomycin-induced phosphorylation of CHK2 (phospho-Thr68) in the human colon carcinoma cell line HCT116:
HCT116 cells are sown out in a defined cell density in 384-well plates in culture medium (DMEM high glucose, 2 mM GlutaMax, 1 mM Na pyruvate, 10% FCS) and incubated overnight at 37° C. and 10% of CO2. […] After incubation for four hours at 37° C. and 10% of CO2, the cells are fixed (5 min, 4% formaldehyde in PBS), permeabilised (10 min, 0.2% Triton X-100 in PBS) and, after blocking of nonspecific binding sites (10% goat serum, 1% BSA in PBS), incubated overnight at 4° C. with a specific anti-pCHK2 antibody (cell signalling #2661). pCHK2 (Thr68) is determined using an Alexa488-labelled secondary anti-rabbit IgG antibody. […] The pCHK2 signal is detected using a high-content imager (Molecular Devices IMX Ultra) and automatic image analysis using the MetaXpress software belonging to the instrument. The number of cell nuclei which have a pCHK2 signal above a defined background is determined.

The target in another experiment is PI3K p110β/p85α (human) (Homo sapiens (Human), UniProt P42338). Nature of the experiment: PI3K p110β/p85α (human), non-radioactive assay (HTRF). Type of experiment: biochemical. The settings on record: ATM versus PI3Kbeta. How it is done:
PI3K p110β/p85α (Human), Non-Radioactive Assay
PI3K p110β/p85α (human) was incubated in an assay buffer comprising 10 μM phosphatidylinositol 4,5-bisphosphate and MgATP (concentration as necessary). The reaction was initiated by addition of MgATP solution. After an incubation time of 30 min at room temperature, the reaction was stopped by addition of a solution consisting of EDTA and biotinylated phosphatidylinositol 3,4,5-trisphosphate. Finally, the detection buffer, consisting of a europium-labelled anti-GST monoclonal antibody, a GST-labelled GRP1 PH domain and streptavidin allophycocyanin, was added. The plate was read out via homogeneous time-resolved fluorescence (HTRF) and the corresponding signals were evaluated via the formula HTRF=10000×(Em665 nm/Em620 nm).
Background: In TR-FRET formats the signal depends on donor and acceptor labels being close together.

In experiment [2] the target is human recombinant ATM (ataxia telangiectasia mutated) kinase (Homo sapiens (Human), UniProt Q13315). Nature of the experiment: ATM kinase assay, determination of ATM inhibition (IC50 ATM), TR-FRET. Type of experiment: biochemical. The settings on record: 10 μM ATP, p53 substrate. The method, then:
ATM Kinase Assay—Determination of ATM Inhibition (IC50 ATM):
The IC50 value was determined with the aid of a biochemical ATM kinase assay. The assay consists of two steps: the enzymatic reaction and the detection step. Firstly, ATM (ataxia telangiectasia mutated) protein and the test substance are incubated at different concentrations with addition of substrate protein p53 and ATP. ATM mediates the phosphorylation of p53 at several positions, including at amino acid S15. The amount of phosphorylated p53 is determined with the aid of specific antibodies and the TR-FRET technique. The enzymatic ATM assay is carried out as TR-FRET (HTRF™, Cisbio Bioassays) based 384-well assay. In the first step, purified human recombinant ATM (human ATM, full length, GenBank ID NM_000051, expressed in a mammal cell line) is incubated in assay buffer for 15 minutes with the ATM inhibitor in various concentrations and without test substance as negative or neutral control. The assay buffer comprises 25 mM HEPES pH 8.0, 10 mM Mg(CH3COO)2, 1 mM MnCl2, 0.1% BSA and 0.01% Brij® 35, 5 mM dithiothreitol (DTT). […] After incubation, usually for 2 hours (between 1.5 and 15 h), for signal development, the plates are analysed in a plate reader (EnVision, PerkinElmer) using TRF mode (and with laser excitation). […]

Chain of human recombinant ATM (ataxia telangiectasia mutated) kinase (Q13315 whole entry, change not shown): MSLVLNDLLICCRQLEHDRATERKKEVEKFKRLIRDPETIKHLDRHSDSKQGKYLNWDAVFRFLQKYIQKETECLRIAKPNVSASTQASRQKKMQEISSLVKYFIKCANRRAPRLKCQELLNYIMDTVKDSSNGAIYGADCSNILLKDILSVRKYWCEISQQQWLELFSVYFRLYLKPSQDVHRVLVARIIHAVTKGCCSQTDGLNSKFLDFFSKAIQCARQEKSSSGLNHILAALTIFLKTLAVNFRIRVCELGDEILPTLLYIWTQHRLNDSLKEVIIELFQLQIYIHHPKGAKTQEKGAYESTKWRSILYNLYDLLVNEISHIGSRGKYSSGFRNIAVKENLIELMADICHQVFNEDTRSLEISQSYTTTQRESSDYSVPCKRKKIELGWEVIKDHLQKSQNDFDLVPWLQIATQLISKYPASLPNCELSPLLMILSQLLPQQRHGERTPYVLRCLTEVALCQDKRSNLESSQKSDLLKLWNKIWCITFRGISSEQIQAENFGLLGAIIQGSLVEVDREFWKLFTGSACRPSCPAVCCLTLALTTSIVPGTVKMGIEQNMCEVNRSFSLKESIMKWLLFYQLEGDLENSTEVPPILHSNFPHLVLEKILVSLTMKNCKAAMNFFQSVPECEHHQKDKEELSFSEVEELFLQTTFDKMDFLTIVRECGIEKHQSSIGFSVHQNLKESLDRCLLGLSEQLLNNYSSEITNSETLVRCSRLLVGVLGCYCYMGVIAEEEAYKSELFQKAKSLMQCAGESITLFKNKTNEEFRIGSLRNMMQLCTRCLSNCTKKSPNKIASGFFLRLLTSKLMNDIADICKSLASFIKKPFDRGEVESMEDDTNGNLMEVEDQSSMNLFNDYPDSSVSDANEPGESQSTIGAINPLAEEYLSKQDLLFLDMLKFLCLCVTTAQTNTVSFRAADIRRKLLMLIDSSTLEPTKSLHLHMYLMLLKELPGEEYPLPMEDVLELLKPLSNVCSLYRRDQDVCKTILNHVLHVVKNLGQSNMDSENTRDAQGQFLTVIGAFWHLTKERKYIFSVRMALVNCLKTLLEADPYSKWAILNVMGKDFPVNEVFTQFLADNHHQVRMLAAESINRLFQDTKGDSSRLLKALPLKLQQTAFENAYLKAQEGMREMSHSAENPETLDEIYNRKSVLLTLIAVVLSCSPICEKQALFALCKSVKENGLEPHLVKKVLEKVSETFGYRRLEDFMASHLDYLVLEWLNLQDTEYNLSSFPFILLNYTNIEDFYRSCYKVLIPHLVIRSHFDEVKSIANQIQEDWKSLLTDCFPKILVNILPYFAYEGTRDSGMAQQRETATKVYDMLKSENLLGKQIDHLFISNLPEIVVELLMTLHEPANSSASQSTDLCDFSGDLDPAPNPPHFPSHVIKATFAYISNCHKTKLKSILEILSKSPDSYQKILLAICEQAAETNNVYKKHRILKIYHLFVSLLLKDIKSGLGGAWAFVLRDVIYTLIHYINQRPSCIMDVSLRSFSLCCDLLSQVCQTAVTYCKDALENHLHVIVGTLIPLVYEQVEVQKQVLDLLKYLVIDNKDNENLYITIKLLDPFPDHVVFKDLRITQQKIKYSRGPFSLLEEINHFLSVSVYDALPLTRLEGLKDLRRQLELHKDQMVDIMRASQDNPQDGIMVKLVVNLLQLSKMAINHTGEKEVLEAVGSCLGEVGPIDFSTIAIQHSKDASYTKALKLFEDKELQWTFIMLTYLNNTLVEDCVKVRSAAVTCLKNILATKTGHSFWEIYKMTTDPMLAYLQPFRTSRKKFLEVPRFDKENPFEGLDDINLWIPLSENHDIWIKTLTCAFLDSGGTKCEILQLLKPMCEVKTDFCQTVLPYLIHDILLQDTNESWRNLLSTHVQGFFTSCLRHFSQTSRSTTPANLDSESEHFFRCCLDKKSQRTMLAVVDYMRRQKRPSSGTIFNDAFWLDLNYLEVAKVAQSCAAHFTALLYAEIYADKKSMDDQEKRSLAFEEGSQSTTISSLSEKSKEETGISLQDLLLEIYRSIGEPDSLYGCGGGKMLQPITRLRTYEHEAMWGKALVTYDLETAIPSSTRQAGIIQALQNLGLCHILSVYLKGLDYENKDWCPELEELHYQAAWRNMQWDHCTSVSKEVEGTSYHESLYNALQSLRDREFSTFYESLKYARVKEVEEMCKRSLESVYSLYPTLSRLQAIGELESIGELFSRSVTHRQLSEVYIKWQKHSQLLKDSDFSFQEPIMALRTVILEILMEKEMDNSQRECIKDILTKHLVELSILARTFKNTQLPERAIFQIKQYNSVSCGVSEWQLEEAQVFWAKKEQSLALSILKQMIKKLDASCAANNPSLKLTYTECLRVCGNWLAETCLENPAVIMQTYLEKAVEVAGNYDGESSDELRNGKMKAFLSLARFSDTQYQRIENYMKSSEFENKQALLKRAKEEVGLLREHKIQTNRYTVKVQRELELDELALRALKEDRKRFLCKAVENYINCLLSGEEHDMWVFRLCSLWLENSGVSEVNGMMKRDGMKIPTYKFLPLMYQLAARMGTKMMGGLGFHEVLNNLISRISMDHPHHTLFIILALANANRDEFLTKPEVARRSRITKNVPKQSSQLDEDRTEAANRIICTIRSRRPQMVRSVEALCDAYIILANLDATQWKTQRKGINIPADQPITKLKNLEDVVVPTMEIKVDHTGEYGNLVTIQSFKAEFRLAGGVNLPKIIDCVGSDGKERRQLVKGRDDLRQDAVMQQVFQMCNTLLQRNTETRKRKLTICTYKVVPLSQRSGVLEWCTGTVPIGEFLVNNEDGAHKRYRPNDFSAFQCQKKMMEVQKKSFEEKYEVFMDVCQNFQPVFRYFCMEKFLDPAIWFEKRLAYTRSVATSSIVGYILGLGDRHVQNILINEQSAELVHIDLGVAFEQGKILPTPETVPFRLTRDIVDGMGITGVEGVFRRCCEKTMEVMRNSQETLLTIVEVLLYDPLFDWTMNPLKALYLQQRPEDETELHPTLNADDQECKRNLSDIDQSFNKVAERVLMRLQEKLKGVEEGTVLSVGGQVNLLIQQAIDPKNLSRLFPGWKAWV
Chain of PI3K p110β/p85α (human) (P42338 whole entry): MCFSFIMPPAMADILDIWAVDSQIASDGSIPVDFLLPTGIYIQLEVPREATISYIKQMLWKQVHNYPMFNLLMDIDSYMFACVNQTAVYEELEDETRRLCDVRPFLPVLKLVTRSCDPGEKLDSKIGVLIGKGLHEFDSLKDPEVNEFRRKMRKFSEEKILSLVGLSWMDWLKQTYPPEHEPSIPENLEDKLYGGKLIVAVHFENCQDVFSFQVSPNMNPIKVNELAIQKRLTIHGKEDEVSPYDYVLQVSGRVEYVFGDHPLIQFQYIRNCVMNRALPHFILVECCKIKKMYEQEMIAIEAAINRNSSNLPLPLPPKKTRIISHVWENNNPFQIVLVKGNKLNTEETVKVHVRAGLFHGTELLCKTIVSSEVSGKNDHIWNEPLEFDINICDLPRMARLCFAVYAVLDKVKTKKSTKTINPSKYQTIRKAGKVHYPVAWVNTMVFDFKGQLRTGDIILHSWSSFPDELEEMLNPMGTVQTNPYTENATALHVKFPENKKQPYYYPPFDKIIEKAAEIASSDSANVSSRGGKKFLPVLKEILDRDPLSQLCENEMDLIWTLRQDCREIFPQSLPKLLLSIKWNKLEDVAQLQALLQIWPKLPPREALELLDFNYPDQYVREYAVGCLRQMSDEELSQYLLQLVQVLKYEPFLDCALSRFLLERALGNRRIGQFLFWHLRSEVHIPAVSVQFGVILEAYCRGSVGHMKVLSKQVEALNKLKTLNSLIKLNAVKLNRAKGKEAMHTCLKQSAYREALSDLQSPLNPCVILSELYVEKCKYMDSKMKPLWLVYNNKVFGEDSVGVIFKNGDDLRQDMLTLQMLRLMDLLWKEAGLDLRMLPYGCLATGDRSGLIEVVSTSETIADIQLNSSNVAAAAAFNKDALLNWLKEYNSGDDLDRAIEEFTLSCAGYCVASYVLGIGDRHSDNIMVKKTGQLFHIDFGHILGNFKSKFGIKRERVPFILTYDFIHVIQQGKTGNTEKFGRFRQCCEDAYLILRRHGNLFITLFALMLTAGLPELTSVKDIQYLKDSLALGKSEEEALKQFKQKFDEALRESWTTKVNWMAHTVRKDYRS
Chain of PI3K p110β/p85α (human) (P27986 whole entry partner): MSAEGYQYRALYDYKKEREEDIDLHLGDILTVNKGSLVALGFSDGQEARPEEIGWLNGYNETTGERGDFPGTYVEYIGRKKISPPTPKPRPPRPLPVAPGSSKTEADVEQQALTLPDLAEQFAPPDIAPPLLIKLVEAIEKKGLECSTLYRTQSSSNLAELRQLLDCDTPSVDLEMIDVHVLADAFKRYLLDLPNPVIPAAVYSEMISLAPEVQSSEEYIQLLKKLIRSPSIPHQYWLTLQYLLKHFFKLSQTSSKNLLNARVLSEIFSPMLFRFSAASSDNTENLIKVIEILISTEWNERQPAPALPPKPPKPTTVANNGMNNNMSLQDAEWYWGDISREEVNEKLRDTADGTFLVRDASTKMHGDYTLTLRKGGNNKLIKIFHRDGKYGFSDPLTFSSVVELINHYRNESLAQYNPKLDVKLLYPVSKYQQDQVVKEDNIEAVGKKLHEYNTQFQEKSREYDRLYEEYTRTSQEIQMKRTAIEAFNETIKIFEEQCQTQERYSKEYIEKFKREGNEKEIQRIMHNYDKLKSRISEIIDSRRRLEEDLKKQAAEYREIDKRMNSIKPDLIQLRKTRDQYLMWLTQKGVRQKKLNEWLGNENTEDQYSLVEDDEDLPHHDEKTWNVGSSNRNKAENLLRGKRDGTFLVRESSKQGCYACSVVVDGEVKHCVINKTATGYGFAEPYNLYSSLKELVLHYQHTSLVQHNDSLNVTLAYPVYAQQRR

For “1-(3,5-Dimethyl-1H-pyrazol- 4-yl)-7-methoxy-3-methyl-8- (1-methyl-1H-pyrazol-4-yl)- 1,3-dihydroimidazo[4,5-c]- quinolin-2-one [Example 118]”, the “ratio IC50 (ATM):IC50 (mTOR), selectivity with respect to mTOR” value at mTOR (human) was “at least 2000 times”. Besides, the IC50 (in general, the concentration at which inhibition is half-maximal) is 200 to 1000 nM in experiment [1] and less than 10 nM in experiment [2]. The “ratio IC50 (ATM):IC50 (PI3Kbeta), selectivity with respect to PI3Kbeta” value on PI3K p110β/p85α (human) was “at least 2000 times”.
